# Data reported in patent US20040248887A1, “Inhibitors of cathepsin S” (IRM LLC, priority 2003, published 2004).
# Molecular target: Cathepsin S (Homo sapiens, UniProt P25774)
# Test: Cathepsin S inhibition, fluorogenic peptide substrate kinetic assay
# Assay type: biochemical
# Conditions: Table II; Cathepsin S inhibition constant, pH5.5; read-out: Ki Cat. S
# How it was run: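 Ki values derive from apparent constants fitted to progress curves, corrected for competition with substrate via [S] and Km. Kinetics were monitored at 380 nm excitation/450 nm emission, after substrate addition (Ac-HPVK-ACC, 50 μM final) to start the reaction.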
# Cathepsin S, sequence (P25774 115-331, species assumed): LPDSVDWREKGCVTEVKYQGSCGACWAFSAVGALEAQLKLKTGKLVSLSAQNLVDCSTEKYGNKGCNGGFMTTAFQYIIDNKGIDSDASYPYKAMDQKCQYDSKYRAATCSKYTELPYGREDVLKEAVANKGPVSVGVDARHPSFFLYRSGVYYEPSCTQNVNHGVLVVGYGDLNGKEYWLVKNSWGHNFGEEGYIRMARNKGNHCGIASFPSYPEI
row,Compound,Ki
1,"CSc1ccc(NC[C@H](C)NC(=O)[C@H](CC2CCCCC2)NC(=O)c2ccc(-c3cccc(F)c3)o2)cc1 [Compound 117, 5-(3-Fluoro-phenyl)-furan-2-carboxylic acid {2-cyclohexyl-1-(S)-[1-(S)-methyl-2-(4-methylsulfanyl-phenylamino)-ethylcarbamoyl]-ethyl}-amide]",< 0.1 µM
2,"O=C(N[C@@H](CC1CCCCC1)C(=O)NCCN1CCc2cc(F)ccc21)C1CCN(S(=O)(=O)c2ccc(F)cc2)CC1 [Compound 66, 1-(4-Fluoro-benzenesulfonyl)-piperidine-4-carboxylic acid (S)-{2-cyclohexyl-1-[2-(5-fluoro-2,3-dihydro-indol-1-yl)-ethylcarbamoyl]-ethyl}-amide]",< 1 µM
3,"C[C@@H](CNc1ccc(OC(F)(F)F)cc1)NC(=O)[C@H](CC1CCCCC1)NC(=O)OC1CCOCC1 [Compound 184, (S,S)-{2-Cyclohexyl-1-[1-methyl-2-(4-trifluoromethoxy-phenylamino)-ethylcarbamoyl]-ethyl}-carbamic acid tetrahydro-pyran-4-yl ester]",< 0.1 µM
4,"COc1cccc(C(=O)N[C@@H](CC2CCCCC2)C(=O)N[C@@H](COCc2ccccc2)CN2CCc3cc(F)ccc32)c1 [Compound 149, N-{1-(S)-[1-(R)-Benzyloxymethyl-2-(5-fluoro-2,3-dihydro-indol-1-yl)-ethylcarbamoyl]-2-cyclohexyl-ethyl}-3-methoxy-benzamide]",< 0.1 µM
5,"Cc1cccc(C(=O)N[C@@H](Cc2cccc(Cl)c2)C(=O)NCCN2CCc3cc(F)ccc32)c1 [Compound 197, N-((S)-1-(2-(5-fluoroindolin-1-yl)ethylcarbamoyl)-2-(3-chlorophenyl)ethyl)-3-methylbenzamide]",< 1 µM
6,"C[C@@H](CNc1ccc(OC(F)(F)F)cc1)NC(=O)[C@H](CC1CCCCC1)NC(=O)c1ccc(-c2ccc(F)cc2)o1 [Compound 103, 5-(4-Fluoro-phenyl)-furan-2-carboxylic acid {2-cyclohexyl-1-(S)-[1-(S)-methyl-2-(4-trifluoromethoxy-phenylamino)-ethylcarbamoyl]-ethyl}-amide]",< 0.1 µM
7,"O=C(N[C@@H](CC1CCCCC1)C(=O)NCCN1CCc2cc(F)ccc21)C1CC(=O)N(Cc2ccccc2)C1 (stereo partly drawn) [Compound 65, 1-Benzyl-5-oxo-pyrrolidine-3-carboxylic acid (S)-{2-cyclohexyl-1-[2-(5-fluoro-2,3-dihydro-indol-1-yl)-ethylcarbamoyl]-ethyl}-amide]",< 1 µM
8,"CC(C)(C)C[C@H](NC(=O)OC(C)(C)C)C(=O)N[C@@H](COCc1ccccc1)CN1CCc2cc(F)ccc21 [Compound 154, {1-(S)-[1-(R)-Benzyloxymethyl-2-(5-fluoro-2,3-dihydro-indol-1-yl)-ethylcarbamoyl]-3,3-dimethyl-butyl}-carbamic acid tert-butyl ester]",< 0.1 µM
9,"C[C@@H](CNc1ccc(S(C)(=O)=O)cc1)NC(=O)[C@H](CC1CCCCC1)NC(=O)c1ccc(-c2cccc(F)c2)o1 [Compound 89, 5-(3-Fluoro-phenyl)-furan-2-carboxylic acid {2-cyclohexyl-1-(S)-[2-(4-methanesulfonyl-phenylamino)-1-(S)-methyl-ethylcarbamoyl]-ethyl}-amide]",< 0.1 µM
10,"C[C@@H](CNc1ccc(S(C)(=O)=O)cc1)NC(=O)[C@H](CC(C)(C)C)NC(=O)c1ccc(-c2cccc(F)c2)o1 [Compound 129, 5-(3-Fluoro-phenyl)-furan-2-carboxylic acid {1-(S)-[2-(4-methanesulfonyl-phenylamino)-1-(S)-methyl-ethylcarbamoyl]-3,3-dimethyl-butyl}-amide]",< 0.1 µM
11,"CC(=O)Nc1nc(C)c(S(=O)(=O)N[C@@H](CC2CCCCC2)C(=O)NCCN2CCc3cc(F)ccc32)s1 [Compound 257, (S)-2-(2-Acetylamino-4-methyl-thiazole-5-sulfonylamino)-3-cyclohexyl-N-[2-(5-fluoro-2,3-dihydro-indol-1-yl)-ethyl]-propionamide]",< 0.1 µM
12,"Cn1cnc(C(=O)N[C@@H](CC2CCCCC2)C(=O)NCCN2CCc3cc(F)ccc32)c1 [Compound 63, 1-Methyl-1H-imidazole-4-carboxylic acid (S)-{2-cyclohexyl-1-[2-(5-fluoro-2,3-dihydro-indol-1-yl)-ethylcarbamoyl]-ethyl}-amide]",< 1 µM
13,"C[C@@H](CNc1cccc(S(C)(=O)=O)c1)NC(=O)[C@H](CC(C)(C)C)NC(=O)c1ccc(-c2cccc(F)c2)o1 [Compound 130, 5-(3-Fluoro-phenyl)-furan-2-carboxylic acid {1-(S)-[2-(3-methanesulfonyl-phenylamino)-1-(S)-methyl-ethylcarbamoyl]-3,3-dimethyl-butyl}-amide]",< 0.1 µM
14,"COCCC(=O)N[C@@H](CC1CCCCC1)C(=O)N[C@@H](C)CNc1ccc(OC(F)(F)F)cc1 [Compound 123, 3-Cyclohexyl-2-(S)-(3-methoxy-propionylamino)-N-[1-(S)-methyl-2-(4-trifluoromethoxy-phenylamino)-ethyl]-propionamide]",< 0.1 µM
15,"C[C@@H](CNc1cccc(S(C)(=O)=O)c1)NC(=O)[C@H](CC1CCCCC1)NC(=O)c1ccc(-c2cccc(F)c2)o1 [Compound 88, 5-(3-Fluoro-phenyl)-furan-2-carboxylic acid {2-cyclohexyl-1-(S)-[2-(3-methanesulfonyl-phenylamino)-1-(S)-methyl-ethylcarbamoyl]-ethyl}-amide]",< 0.1 µM
16,"C[C@@H](CN1c2ccc(F)cc2CC1(C)C)NC(=O)[C@H](CC1CCCCC1)NC(=O)C1CCOC1 (stereo partly drawn) [Compound 140, Tetrahydrofuran-3-carboxylic acid {2-cyclohexyl-1-(S)-[2-(5-fluoro-2,2-dimethyl-2,3-dihydro-indol-1-yl)-1-(S)-methyl-ethylcarbamoyl]-ethyl}-amide]",< 0.1 µM
17,"O=C(N[C@@H](CC1CCCCC1)C(=O)NCCN1CCc2cc(F)ccc21)C1CCN(C(=O)c2ccccc2)CC1 [Compound 5, 1-Benzoyl-piperidine-4-carboxylic acid (S)-{2-cyclohexyl-1-[2-(5-fluoro-2,3-dihydro-indol-1-yl)-ethylcarbamoyl]-ethyl}-amide]",< 1 µM
18,"COc1cccc(C(=O)N[C@@H](CC2CCCCC2)C(=O)N[C@@H](CC(=O)O)CN2CCc3cc(F)ccc32)c1 [Compound 162, 3-(S)-[3-Cyclohexyl-2-(S)-(3-methoxy-benzoylamino)-propionylamino]-4-(5-fluoro-2,3-dihydro-indol-1-yl)-butyric acid]",< 0.1 µM
19,"CC(C)(C)C[C@H](NC(=O)OC(C)(C)C)C(=O)N[C@@H](CCS(C)(=O)=O)CN1CCc2cc(F)ccc21 [Compound 157, {1-(S)-[1-(S)-(5-Fluoro-2,3-dihydro-indol-1-ylmethyl)-3-methanesulfonyl-propylcarbamoyl]-3,3-dimethyl-butyl}-carbamic acid tert-butyl ester]",< 0.1 µM
20,"Cc1cccc(C(=O)N[C@@H](CC(C)C)C(=O)N[C@@H](CCC(=O)OCc2ccccc2)CN2CCc3cc(F)ccc32)c1 [Compound 42, (S,S)-5-(5-Fluoro-2,3-dihydro-indol-1-yl)-4-[4-methyl-2-(3-methyl-benzoylamino)-pentanoylamino]-pentanoic acid benzyl ester]",< 0.1 µM
21,"C[C@@H](CN1CC(C)(C)c2cc(F)ccc21)NC(=O)[C@H](CC1CCCCC1)NC(=O)O[C@@H]1CCOC1 [Compound 216, {2-Cyclohexyl-1-(S)-[2-(5-fluoro-3,3-dimethyl-2,3-dihydro-indol-1-yl)-1-(S)-methyl-ethylcarbamoyl]-ethyl}-carbamic acid (R)-tetrahydrofaran-3-yl ester]",< 0.1 µM
22,"C[C@@H](CNc1ccc(OC(F)(F)F)cc1)NC(=O)[C@H](CC1CCCCC1)NC(=O)O[C@H]1CCOC1 [Compound 189, {2-Cyclohexyl-1-(S)-[1-(S)-methyl-2-(4-trifluoromethoxy-phenylamino)-ethylcarbamoyl]-ethyl}-carbamic acid tetrahydrofuran-3-(S)-yl ester]",< 0.1 µM
23,"C[C@@H](CNc1ccc(S(=O)(=O)N2CCOCC2)cc1)NC(=O)[C@H](CC1CCCCC1)NC(=O)c1ccc(-c2cccc(F)c2)o1 [Compound 136, 5-(3-Fluoro-phenyl)-furan-2-carboxylic acid (2-cyclohexyl-1-(S)-{1-(S)-methyl-2-[4-(morpholine-4-sulfonyl)-phenylamino]-ethylcarbamoyl}-ethyl)-amide]",< 1 µM
24,"C[C@@H](CNc1ccccc1F)NC(=O)[C@H](CC1CCCCC1)NC(=O)c1ccc(-c2cccc(F)c2)o1 [Compound 95, 5-(3-Fluoro-phenyl)-furan-2-carboxylic acid {2-cyclohexyl-1-(S)-[2-(2-fluoro-phenylamino)-1-(S)-methyl-ethylcarbamoyl]-ethyl}-amide]",< 0.1 µM
25,"C[C@@H](CNc1cc(F)ccc1Cl)NC(=O)[C@H](CC1CCCCC1)NC(=O)c1ccc(-c2cccc(F)c2)o1 [Compound 112, 5-(3-Fluoro-phenyl)-furan-2-carboxylic acid {1-(S)-[2-(2-chloro-5-fluoro-phenylamino)-1-(S)-methyl-ethylcarbamoyl]-2-cyclohexyl-ethyl}-amide]",< 1 µM
26,"Cc1noc(C)c1S(=O)(=O)N[C@@H](CC1CCCCC1)C(=O)N[C@@H](C)CN1CCc2cc(F)ccc21 [Compound 263, (S,S)-3-Cyclohexyl-2-(3,5-dimethyl-isoxazole-4-sulfonylamino)-N-[2-(5-fluoro-2,3-dihydro-indol-1-yl)-1-methyl-ethyl]-propionamide]",< 0.1 µM
27,"O=C(NC(C(=O)N[C@@H](COCc1ccccc1)CN1CCc2cc(F)ccc21)c1ccc(Cl)cc1Cl)c1ccco1 (mixture of isomers) [Compound 207, N-(R,S)-((3-(benzyloxy)-1-(5-fluoroindolin-1-yl)propan-2-(R)-ylcarbamoyl)(2,4-dichlorophenyl)methyl)furan-2-carboxamide]",< 0.1 µM
28,"O=C(N[C@@H](CC1CCCCC1)C(=O)N[C@@H](COCc1ccccc1)CN1CCc2cc(F)ccc21)c1ccc(-c2cccc(C(F)(F)F)c2)o1 [Compound 152, 5-(3-Trifluoromethyl-phenyl)-furan-2-carboxylic acid {1-(S)-[1-(R)-benzyloxymethyl-2-(5-fluoro-2,3-dihydro-indol-1-yl)-ethylcarbamoyl]-2-cyclohexyl-ethyl}-amide]",< 0.1 µM
